Results: patent publication US9353096B2, “Substituted phenylcarbamate compounds” (Hoffmann-La Roche Inc., priority 2012, dated 2016)
pIC50: −log10 of the molar value. Structures can show the parent of a compound that is named as a salt.

target: hTRPA1 (Homo sapiens, UniProt O75762); assay: Dose response calcium flux (FLIPR) assay, ChanTest hTRPA1-CHO stably transfected cell line, cinnamaldehyde agonist; format: cell-based; details: CHO-K1 Tet-On hTRPA1 cells, 100 uM cinnamaldehyde agonist, 30 min preincubation
Method: Dose Response Assay:ChanTest hTRPA1-CHO Stably Transfected Cell Line
CHO-K1 Tet-On_HOMSA_TRPA1_Clone_20
Growth Media for CHO-K1 Tet-On_HOMSA_TRPA1_Clone_20 • Ham's F-12 with 10% tetracycline-free FBS • 1× penicillin-streptomycin • 1× glutamax • 0.01 mg/ml Blasticidin • 0.40 mg/ml Zeocin • The cell line doubling rate was ˜15 h. […] Experiments were run at 24 h post induction.
Plating Conditions CHOK1/TRPA1 Cells: • Harvested cells with 0.025% trypsin/EDTA. • Resuspended cells in growth media without selection antibiotics. • Measured cell density and diluted to 2.4×10^5 cells/ml in media containing 1 ug/ml Doxycycline Plate 25 ul/well into 384 well black/clear tissue culture-treated plates. • Incubated overnight at 37° C.
Replacement Buffer: Hank's Balanced Salt Solution, 20 mM HEPES along with 0.005% BSA and 2× Probenecid
Dye Loading Buffer: Cal-3 NW Calcium dye was prepared by dissolving the contents of one vial with […] Hank's Balanced Salt Solution containing 20 mM HEPES.
AP-18, stock 10 mM, prepare 3.5× compound dilution in a Compound Buffer (HBSS/20 mM HEPES/0.005% BSA)—final concentration 10 uM.
Preparation of Cinnamaldehyde (Agonist Addition): • FW=132.16 • Specific gravity=1.046 gm/cc • 1.32 gm/1.046 gm/cc=1.26 ml of stock • Add 1.74 ml DMSO=3.3 M stock • Working solution 4.5× (final 100 uM in Compound Buffer: HBSS/20 mM HEPES/0.005% BSA)
Compounds dilutions were prepared from 5 or 10 mM stock (100% DMSO): • Adjustments of volumes and concentrations were made at time of titration to reflect desired final assay concentrations. • Compounds were tested at either 20 μM three folds dilution 11 steps out or 30 μM two folds dilution 11 steps out. • 3 μl of diluted compound were transferred into Weidmann 384-well plate in duplicates side-by-side. • Compound plates were resuspended with 100 ul of HBSS/20 mM HEPES/0.005% BSA buffer (Compound Buffer): • column 1A-H: buffer/DMSO (bk) • column 2A-H: AP-18 (control antagonist for CHOK1 TRPA1 cells) • column 1I-P: ATP (control for CHOK1 teton cells) • column 2I-P: 2APB (control antagonist for CHOK1/TRPM8 cells).
Growth media was removed from the cell plates (20 ul) and 20 μl of the Replacement Buffer was added followed by addition of 25 μl of diluted dye. All three steps were performed using a Plate Washer BioTek 407. The plates were then incubated for 30′ at RT.
After incubation, both the cell and compound plates were brought to the FLIPR and 20 μl of the diluted compounds/antagonist/bk were transferred to the cell plates by the FLIPR. Plates were then incubated for 30′ at room temperature. After 30′ incubation, plates were returned to the FLIPR and 20 μl of 4.5× Cinnamaldehyde was added to the cell plates. During the compound addition as well as agonist addition, fluorescence readings were taken simultaneously from all 384 wells of the cell plate every 1.5 seconds. Five readings were taken to establish a stable baseline, then 20 μl of sample was rapidly (30 ul/sec) and simultaneously added to each well of the cell plate. The fluorescence was continuously monitored before, during and after sample/agonist addition for a total elapsed time of 100 seconds (compound addition) and 120 seconds (agonist addition). Responses (increase in peak fluorescence) in each well following agonist addition was determined. The initial fluorescence reading from each well, prior to ligand stimulation, was used a zero baseline value for the data from that well.

hTRPA1, sequence (O75762 whole entry): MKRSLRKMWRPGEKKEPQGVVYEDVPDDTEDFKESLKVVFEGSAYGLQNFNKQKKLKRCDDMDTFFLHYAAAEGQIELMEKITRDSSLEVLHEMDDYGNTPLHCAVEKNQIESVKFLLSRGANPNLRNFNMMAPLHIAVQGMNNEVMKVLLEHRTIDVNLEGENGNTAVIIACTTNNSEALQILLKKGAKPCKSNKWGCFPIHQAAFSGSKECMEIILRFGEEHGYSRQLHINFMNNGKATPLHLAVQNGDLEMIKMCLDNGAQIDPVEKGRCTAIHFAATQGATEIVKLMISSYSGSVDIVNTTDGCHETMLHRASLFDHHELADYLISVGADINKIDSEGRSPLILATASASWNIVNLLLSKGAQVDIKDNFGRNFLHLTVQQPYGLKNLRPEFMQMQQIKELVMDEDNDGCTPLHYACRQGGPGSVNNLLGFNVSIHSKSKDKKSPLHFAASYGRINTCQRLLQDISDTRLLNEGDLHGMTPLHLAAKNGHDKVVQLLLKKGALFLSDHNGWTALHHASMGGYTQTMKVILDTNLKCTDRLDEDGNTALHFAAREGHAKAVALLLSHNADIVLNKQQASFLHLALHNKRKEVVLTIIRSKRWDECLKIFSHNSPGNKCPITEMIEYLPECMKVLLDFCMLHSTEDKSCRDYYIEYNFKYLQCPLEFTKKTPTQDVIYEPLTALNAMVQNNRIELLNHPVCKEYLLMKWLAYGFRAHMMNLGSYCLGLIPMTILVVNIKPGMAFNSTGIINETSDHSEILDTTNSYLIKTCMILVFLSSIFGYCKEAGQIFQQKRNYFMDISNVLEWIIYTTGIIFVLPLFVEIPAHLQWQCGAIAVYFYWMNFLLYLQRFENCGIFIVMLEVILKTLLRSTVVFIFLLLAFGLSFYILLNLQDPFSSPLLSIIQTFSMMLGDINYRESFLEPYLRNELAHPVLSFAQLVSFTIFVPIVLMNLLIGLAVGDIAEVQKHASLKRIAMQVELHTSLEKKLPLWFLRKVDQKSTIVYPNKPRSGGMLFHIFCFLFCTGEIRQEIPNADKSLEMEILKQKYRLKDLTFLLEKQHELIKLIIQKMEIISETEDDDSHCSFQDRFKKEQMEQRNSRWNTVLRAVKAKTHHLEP

Compared with `O=C(Nc1ccc(Cl)c(F)c1)O[C@@H](CN1CCS(=O)(=O)[C@H](c2cccc(C(F)(F)F)c2)C1)C(F)(F)F` [Example 20, (4-Chloro-3-fluorophenyl)-carbamic acid (S)-1-[(R)-1,1-dioxo-2-(3-trifluoromethylphenyl)-1λ^6-thiomorpholin-4-ylmethyl]-2,2,2-trifluoroethyl ester], `O=C(Nc1ccc(Cl)c(F)c1)O[C@@H](CN1CCO[C@H](c2ccc(C(F)(F)F)cc2)C1)C(F)(F)F` [Example 31, (4-Chloro-3-fluorophenyl)carbamic acid (S)-2,2,2-trifluoro-1-[(R)-2-(4-trifluoromethylphenyl)-morpholin-4-ylmethyl]-ethyl ester hydrochloride] is 0.33 log units higher in pIC50: 7.13 for the first, 7.46 for the second. The second is the more potent here.

First: O=C(Nc1ccc(Cl)c(F)c1)O[C@@H](CN1CCO[C@H](c2ccc(C(F)(F)F)nc2)C1)C(F)(F)F [Example 22, (4-Chloro-3-fluorophenyl)-carbamic acid (S)-2,2,2-trifluoro-1-[(R)-2-(6-trifluoromethyl-pyridin-3-yl)-morpholin-4-ylmethyl]-ethyl ester]
Second: O=C(Nc1ccc(Cl)c(F)c1)O[C@@H](CN1CCO[C@@H](c2ccc(C(F)(F)F)cc2)C1)C(F)(F)F [Example 32, (4-Chloro-3-fluorophenyl)-carbamic acid (S)-2,2,2-trifluoro-1-[(S)-2-(4-trifluoromethylphenyl)-morpholin-4-ylmethyl]-ethyl ester hydrochloride]
The pIC50 of the first is 0.84 log units higher: 7.19 for the first, 6.35 for the second. The first is the more potent here.

`O=C(Nc1ccc(Cl)c(F)c1)O[C@@H](CN1CCO[C@H](c2ccnc(C(F)(F)F)n2)C1)C(F)(F)F` [Example 24, (4-Chloro-3-fluorophenyl)-carbamic acid (S)-2,2,2-trifluoro-1-[(S)-2-(2-trifluoromethylpyrimidin-4-yl)-morpholin-4-ylmethyl]-ethyl ester hydrochloride] and `CC(C)c1nccc([C@@H]2CN(C[C@H](OC(=O)Nc3ccc(Cl)c(F)c3)C(F)(F)F)CCO2)n1` [Example 25, (4-Chloro-3-fluorophenyl)-carbamic acid (S)-2,2,2-trifluoro-1-[(S)-2-(2-isopropylpyrimidin-4-yl)-morpholin-4-ylmethyl]-ethyl ester hydrochloride] are within 0.2 log units of each other in pIC50: 7.15 for the first, 6.99 for the second.

First: CN1CCN(C[C@H](OC(=O)Nc2ccc(Cl)cc2)C(F)(F)F)CC1c1ccccc1 (stereo partly drawn) [Example 27, (4-Chlorophenyl)-carbamic acid (S)-2,2,2-trifluoro-1-(4-methyl-3-phenylpiperazin-1-ylmethyl)-ethyl ester hydrochloride]
Second: CC(=O)N1CCN(C[C@H](OC(=O)Nc2ccc(Cl)cc2)C(F)(F)F)CC1c1ccccc1 (stereo partly drawn) [Example 28, (4-Chlorophenyl)-carbamic acid (S)-1-(4-acetyl-3-phenylpiperazin-1-ylmethyl)-2,2,2-trifluoroethyl ester hydrochloride]
The pIC50 of the first is 0.24 log units higher: 5.58 for the first, 5.34 for the second. The first is the more potent here.

Compared with `O=C(Nc1ccc(Cl)cc1)O[C@@H](CN1CCO[C@H](c2ccc(C(F)(F)F)cc2)C1)C(F)(F)F` [Example 29, (4-Chlorophenyl)-carbamic acid (S)-2,2,2-trifluoro-1-[(R)-2-(4-trifluoromethylphenyl)-morpholin-4-ylmethyl]-ethyl ester hydrochloride], `O=C(Nc1ccc(Cl)cc1)O[C@@H](CN1CCOC(c2ccc(F)cc2)C1)C(F)(F)F` (stereo partly drawn) [Example 42, (4-Chlorophenyl)carbamic acid (S)-2,2,2-trifluoro-1-[2-(4-fluorophenyl)-morpholin-4-ylmethyl]-ethyl ester hydrochloride] is 1.04 log units lower in pIC50: 8.12 for the first, 7.08 for the second. The first is the more potent here.

Going from `Cc1ccc(NC(=O)O[C@@H](CN2CCOC(c3ccc(C(F)(F)F)cc3)C2)C(F)(F)F)cc1Cl` (stereo partly drawn) [Example 33, (3-Chloro-4-methylphenyl)-carbamic acid (S)-2,2,2-trifluoro-1-[2-(4-trifluoromethylphenyl)-morpholin-4-ylmethyl]-ethyl ester hydrochloride] to `O=C(Nc1ccc(Cl)c(F)c1)O[C@@H](CN1CCO[C@H](c2ccc(F)cc2)C1)C(F)(F)F` [Example 36, (4-Chloro-3-fluorophenyl)carbamic acid (S)-1-[(R)-2-(4-fluorophenyl)-morpholin-4-ylmethyl]-2,2,2-trifluoroethyl ester hydrochloride], the pIC50 rises from 5.79 to 7.04 (1.25 log units).

Going from `O=C(Nc1ccc(Cl)c(F)c1)O[C@@H](CN1CCO[C@H](c2ccc(F)c(F)c2)C1)C(F)(F)F` [Example 34, (4-Chloro-3-fluorophenyl)-carbamic acid (S)-1-[(R)-2-(3,4-difluorophenyl)-morpholin-4-ylmethyl]-2,2,2-trifluoroethyl ester hydrochloride] to `Cc1ccc(NC(=O)O[C@@H](CN2CCOC(c3ccc(F)c(F)c3)C2)C(F)(F)F)cc1` (stereo partly drawn) [Example 37, p-Tolylcarbamic acid (S)-1-[2-(3,4-difluorophenyl)-morpholin-4-ylmethyl]-2,2,2-trifluoroethyl ester hydrochloride], the pIC50 falls from 7.42 to 6.34 (1.08 log units).

First: O=C(Nc1ccc(Cl)nc1)O[C@@H](CN1CCOC(c2cccc(C(F)(F)F)c2)C1)C(F)(F)F (stereo partly drawn) [Example 38, (6-Chloropyridin-3-yl)carbamic acid (S)-2,2,2-trifluoro-1-[2-3-trifluoromethylphenyl]-morpholin-4-ylmethyl]-ethyl ester hydrochloride]
Second: O=C(Nc1ccc(Cl)cc1)O[C@@H](CN1CCOC(c2cccc(F)c2)C1)C(F)(F)F (stereo partly drawn) [Example 47, (4-Chlorophenyl)-carbamic acid (S)-2,2,2-trifluoro-1-[2-(3-fluorophenyl)-morpholin-4-ylmethyl]-ethyl ester hydrochloride]
The pIC50 of the first is 0.22 log units higher: 7.11 for the first, 6.89 for the second.

First: O=C(C[C@@H](CN1CCO[C@H](c2cccc(C(F)(F)F)c2)C1)C(F)(F)F)Nc1ccc(Cl)c(F)c1 [Example 39, (S)—N-(4-chloro-3-fluorophenyl)-4,4,4-trifluoro-3-[(R)-2-(3-trifluoromethylphenyl)-morpholin-4-ylmethyl]-butyramide]
Second: O=C(C[C@@H](CN1CCO[C@@H](c2cccc(C(F)(F)F)c2)C1)C(F)(F)F)Nc1ccc(Cl)c(F)c1 [Example 40, (S)—N-(4-chloro-3-fluorophenyl)-4,4,4-trifluoro-3-[(S)-2-(3-trifluoromethylphenyl)-morpholin-4-ylmethyl]-butyramide]
The pIC50 of the first is 1.62 log units higher: 7.13 for the first, 5.51 for the second.

Compared with `O=C(Nc1ccc(Cl)cc1)OC(CN1CCOCC1)C(F)(F)F` (centres unmarked) [Example 41, (4-Chlorophenyl)-carbamic acid 2,2,2-trifluoro-1-morpholin-4-ylmethyl-ethyl ester], `O=C(Nc1ccc(Cl)cc1)O[C@@H](CN1CCOC(c2cccc(Cl)c2)C1)C(F)(F)F` (stereo partly drawn) [Example 43, (4-Chlorophenyl)-carbamic acid (S)-2,2,2-trifluoro-1-[2-(3-chlorophenyl)-morpholin-4-ylmethyl]-ethyl ester hydrochloride] is 2.08 log units higher in pIC50: 5.67 for the first, 7.75 for the second. The second is the more potent here.

`O=C(Nc1ccc(Cl)cc1)O[C@@H](CN1CCOC(c2cc(Cl)cc(Cl)c2)C1)C(F)(F)F` (stereo partly drawn) [Example 44, (4-Chlorophenyl)-carbamic acid (S)-2,2,2-trifluoro-1-[2-(3,5-dichlorophenyl)-morpholin-4-ylmethyl]-ethyl ester hydrochloride] and `O=C(Nc1ccc(Cl)cc1)O[C@@H](CN1CCO[C@H](c2cc(Cl)cc(Cl)c2)C1)C(F)(F)F` [Example 45, (4-Chlorophenyl)carbamic acid (S)-1-[(R)-2-(3,5-dichlorophenyl)-morpholin-4-ylmethyl]-2,2,2-trifluoroethyl ester hydrochloride] are within 0.2 log units of each other in pIC50: 7.99 for the first, 8.09 for the second.

`O=C(Nc1ccc(Cl)c(F)c1)O[C@@H](CN1CCO[C@H](c2cc(Cl)cc(Cl)c2)C1)C(F)(F)F` [Example 46, (4-Chloro-3-fluorophenyl)carbamic acid (S)-1-[(R)-2-(3,5-dichlorophenyl)-morpholin-4-ylmethyl]-2,2,2-trifluoroethyl ester hydrochloride] gave a pIC50 of 7.77.
